# Laboratory results reported in US11078202B2, “β-lactamase inhibitor and use thereof” (priority 2018, dated 2021).
# Structures can show the parent of a compound that is named as a salt.
# Experiments:
# Type in all cases: cell-based
# [1] = tested on: Klebsiella pneumoniae XNWB 0003; experiment: MIC assay of test compounds combined with ceftazidime (8 μg/mL); conditions: ceftazidime 8 μg/mL fixed
# How it was run: (§1)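 Frozen strains, thawed and passaged twice on TSA (35±2 °C, 20-24 h), supplied colonies standardised in saline to OD600 0.1-0.15. These suspensions, diluted 300× in 1.1×CAMHB, were exposed to graded compound with constant partner antibiotic; MICs were read after 16-20 h at 35±2 °C.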
# [2] = tested on: Klebsiella pneumoniae XNWB 0001; experiment: as above; conditions: ceftazidime 8 μg/mL fixed
# How it was run: as §1
# [3] = tested on: Pseudomonas aeruginosa XNWB 0008; experiment: as above; conditions: ceftazidime 8 μg/mL fixed
# How it was run: as §1
# [4] = tested on: Klebsiella pneumoniae XNWB 0006; experiment: as above; conditions: ceftazidime 8 μg/mL fixed
# How it was run: as §1
# [5] = tested on: Klebsiella pneumoniae XNWB 0004; experiment: as above; conditions: ceftazidime 8 μg/mL fixed
# How it was run: as §1
# [6] = tested on: Klebsiella pneumoniae XNWB 0002; experiment: as above; conditions: ceftazidime 8 μg/mL fixed
# How it was run: as §1
# [7] = tested on: Klebsiella pneumoniae XNWB 0005; experiment: as above; conditions: ceftazidime 8 μg/mL fixed
# How it was run: as §1
# [8] = tested on: Acinetobacter baumannii XNWB 0007; experiment: as above; conditions: ceftazidime 8 μg/mL fixed
# How it was run: as §1
# [9] = tested on: Klebsiella pneumoniae XNWB 0003; experiment: MIC assay of test compounds combined with imipenem (4 μg/mL); conditions: imipenem 4 μg/mL fixed
# How it was run: as §1
# [10] = tested on: Klebsiella pneumoniae XNWB 0001; experiment: as above; conditions: imipenem 4 μg/mL fixed
# How it was run: as §1
# [11] = tested on: Pseudomonas aeruginosa XNWB 0008; experiment: as above; conditions: imipenem 4 μg/mL fixed
# How it was run: as §1
# [12] = tested on: Klebsiella pneumoniae XNWB 0006; experiment: as above; conditions: imipenem 4 μg/mL fixed
# How it was run: as §1
# [13] = tested on: Klebsiella pneumoniae XNWB 0004; experiment: as above; conditions: imipenem 4 μg/mL fixed
# How it was run: as §1
# [14] = tested on: Klebsiella pneumoniae XNWB 0002; experiment: as above; conditions: imipenem 4 μg/mL fixed
# How it was run: as §1
# [15] = tested on: Klebsiella pneumoniae XNWB 0005; experiment: as above; conditions: imipenem 4 μg/mL fixed
# How it was run: as §1
# [16] = tested on: Acinetobacter baumannii XNWB 0007; experiment: as above; conditions: imipenem 4 μg/mL fixed
# How it was run: as §1
SMILES,The minimum concentration of test compounds combined with ceftazidime (8 μg/mL) for bacteriostasis [1],The minimum concentration of test compounds combined with ceftazidime (8 μg/mL) for bacteriostasis [2],The minimum concentration of test compounds combined with ceftazidime (8 μg/mL) for bacteriostasis [3],The minimum concentration of test compounds combined with ceftazidime (8 μg/mL) for bacteriostasis [4],The minimum concentration of test compounds combined with ceftazidime (8 μg/mL) for bacteriostasis [5],The minimum concentration of test compounds combined with ceftazidime (8 μg/mL) for bacteriostasis [6],The minimum concentration of test compounds combined with ceftazidime (8 μg/mL) for bacteriostasis [7],The minimum concentration of test compounds combined with ceftazidime (8 μg/mL) for bacteriostasis [8],The minimum concentration of test compounds combined with imipenem (4 μg/mL) for bacteriostasis [9],The minimum concentration of test compounds combined with imipenem (4 μg/mL) for bacteriostasis [10],The minimum concentration of test compounds combined with imipenem (4 μg/mL) for bacteriostasis [11],The minimum concentration of test compounds combined with imipenem (4 μg/mL) for bacteriostasis [12],The minimum concentration of test compounds combined with imipenem (4 μg/mL) for bacteriostasis [13],The minimum concentration of test compounds combined with imipenem (4 μg/mL) for bacteriostasis [14],The minimum concentration of test compounds combined with imipenem (4 μg/mL) for bacteriostasis [15],The minimum concentration of test compounds combined with imipenem (4 μg/mL) for bacteriostasis [16]
"N=C1NC[C@H](c2nnc([C@@H]3CC4(CC4)[C@@H]4CN3C(=O)N4OS(=O)(=O)O)o2)N1 [Example 56, (1R,4S)-4-(5-((R)-2-iminoimidazolidin-4-yl)-1,3,4-oxadiazol-2-yl)-6-oxo-5,7-diazaspiro[bicyclo[3.2.1]octane-2,1′-cyclopropan]-7-yl sulfate]",A (A: <8 μg/mL),A (A: <8 μg/mL),B (B: 8-16 μg/mL),A (A: <8 μg/mL),A (A: <8 μg/mL),A (A: <8 μg/mL),A (A: <8 μg/mL),C (C: 16-128 μg/mL),A (A: <8 μg/mL),A (A: <8 μg/mL),B (B: 8-16 μg/mL),A (A: <8 μg/mL),A (A: <8 μg/mL),A (A: <8 μg/mL),A (A: <8 μg/mL),B (B: 8-16 μg/mL)
CNCc1cc([C@@H]2CC3(CC3)[C@@H]3CN2C(=O)N3OS(=O)(=O)O)no1 [Example 32],B (B: 8-16 μg/mL),B (B: 8-16 μg/mL),C (C: 16-128 μg/mL),B (B: 8-16 μg/mL),C (C: 16-128 μg/mL),A (A: <8 μg/mL),C (C: 16-128 μg/mL),C (C: 16-128 μg/mL),A (A: <8 μg/mL),A (A: <8 μg/mL),C (C: 16-128 μg/mL),A (A: <8 μg/mL),A (A: <8 μg/mL),A (A: <8 μg/mL),A (A: <8 μg/mL),C (C: 16-128 μg/mL)
"NCC(O)c1nnc([C@@H]2CC3(CC3)[C@@H]3CN2C(=O)N3OS(=O)(=O)O)o1 (stereo partly drawn) [Example 9, (1R,4S)-4-(5-(2-amino-1-hydroxyethyl)-1,3,4-oxadiazol-2-yl)-6-oxo-5,7-diazaspiro [bicyclo[3.2.1]octane-2,1′-cyclopropan]-7-yl sulfate]",A (A: <8 μg/mL),A (A: <8 μg/mL),B (B: 8-16 μg/mL),A (A: <8 μg/mL),A (A: <8 μg/mL),A (A: <8 μg/mL),A (A: <8 μg/mL),C (C: 16-128 μg/mL),A (A: <8 μg/mL),A (A: <8 μg/mL),A (A: <8 μg/mL),A (A: <8 μg/mL),A (A: <8 μg/mL),A (A: <8 μg/mL),A (A: <8 μg/mL),A (A: <8 μg/mL)
"O=C1N2C[C@H](N1OS(=O)(=O)O)C1(CC1)C[C@H]2c1cc(CNC2CNC2)on1 [Example 48, (1R,4S)-4-(5-((azetidin-3-ylamino)methyl)isoxazol-3-yl)-6-oxo-5,7-diazaspiro[bicycle [3.2.1]octane-2,1′-cyclopropan]-7-yl sulfate]",A (A: <8 μg/mL),A (A: <8 μg/mL),B (B: 8-16 μg/mL),A (A: <8 μg/mL),B (B: 8-16 μg/mL),A (A: <8 μg/mL),A (A: <8 μg/mL),C (C: 16-128 μg/mL),A (A: <8 μg/mL),A (A: <8 μg/mL),A (A: <8 μg/mL),A (A: <8 μg/mL),A (A: <8 μg/mL),A (A: <8 μg/mL),A (A: <8 μg/mL),C (C: 16-128 μg/mL)
"NCCCCc1nnc([C@@H]2CC3(CC3)[C@@H]3CN2C(=O)N3OS(=O)(=O)O)o1 [Example 7, (1R,4S)-4-(5-(4-aminobutyl)-1,3,4-oxadiazol-2-yl)-6-oxo-5,7-diazaspiro[bicycle[3.2.1]octane-2,1′-cyclopropan]-7-yl sulfate]",B (B: 8-16 μg/mL),B (B: 8-16 μg/mL),C (C: 16-128 μg/mL),A (A: <8 μg/mL),B (B: 8-16 μg/mL),A (A: <8 μg/mL),B (B: 8-16 μg/mL),C (C: 16-128 μg/mL),A (A: <8 μg/mL),A (A: <8 μg/mL),B (B: 8-16 μg/mL),A (A: <8 μg/mL),A (A: <8 μg/mL),A (A: <8 μg/mL),A (A: <8 μg/mL),B (B: 8-16 μg/mL)
